Patent US20100216116A1, “VIRAL LATENCY MODEL” (priority 2007, published 2010)
Values joined by “and” are separate entries in the source; they are usually repeats but may differ in a detail not shown here. Identical values can stand only once.

B1: IFN-γ (protein, UniProt P01579 24-161, looked up)
Interferon gamma: QDPYVKEAENLKKYFNAGHSDVADNGTLFLGILKNWKEESDRKIMQSQIVSFYFKLFKNFKDDQSIQKSVETIKEDMNVKFFNSNKKKRDDFEKLTNYSVTDLNVQRKAIHELIQVMAELSPAAKTGKRKRSQMLFRG

Legend:
Type in all cases: cell-based
[1] = system: IE180 expression in PRV infected porcine TG neurons
[2] = system: pseudorabies virus (PRV) strain Becker in porcine trigeminal ganglion (TG) neurons
[3] = system: HSV-1 strain F in porcine TG neurons
[4] = system: dormant PRV in porcine TG neurons

Row | Molecule | IE180 expression in discrete nuclear foci after withdrawal [1] | infected neurons with IE180 in discrete nuclear compartments [1] | infected neurons with localized nuclear IE180 expression [1] | infected neurons without any IE180 staining [1] | TG neurons with no detectable expression of late viral antigens [2] | infected neurons with spread of new virus to surrounding non-neuronal cells [2] | neurons with late viral antigen expression limited to the golgi without spread [2] | neurons without detectable expression of late viral proteins after withdrawal [2] | reduction of productive virus infection [2] | expression of HSV-1 gD protein after withdrawal [3] | productive HSV-1 infection [3] | infected neurons showing expression of late viral proteins [4] | reactivation of PRV in neurons that contained dormant virus at 120 hpi [4] | infected neurons without detectable late viral protein expression [2] | virus spread in the inner chamber [2]
1 | IFN-α | no infected neurons showing IE180 protein expression in discrete nuclear foci could be detected | detected in all infected neurons | 45% | 55% | ~90% | ~4% | ~6% | 60% | 64% and 98% | no detectable expression of HSV-1 gD protein was found in any neuron | completely abolished | – | – | – | –
2 | C=C[C@@]1(C)CC(=O)[C@]2(O)[C@@]3(C)[C@@H](O)CCC(C)(C)[C@@H]3[C@H](O)[C@H](OC(C)=O)[C@@]2(C)O1 [forskolin, Forskolin] | – | – | – | – | – | – | – | – | – | – | – | 70% | 50% | – | –
3 | B1 | – | – | – | – | – | – | – | – | 45% and 81% | – | – | – | – | Over 90% | extensive virus spread
